Results as given in patent publication US11814392B2, “Chromenopyridine-based compounds and methods of making and use thereof” (Rosalind Franklin University of Medicine and Science, priority 2020, dated 2023).

Legend:
SK-MEL-28 = test: NCI 60 five-dose screening, SK-MEL-28
Method: (§1) The National Cancer Institute's Developmental Therapeutic preclinical 60 human cancer cell lines were used for an in vitro screen. […] The one-dose and five-dose experiments were conducted according to standard NCI protocols.
(§2) The human tumor cell lines of the cancer screening panel are grown in RPMI 1640 medium containing 5% fetal bovine serum and 2 mM L-glutamine. For a typical screening experiment, cells are inoculated into 96 well microtiter plates in 100 μL at plating densities ranging from 5,000 to 40,000 cells/well depending on the doubling time of individual cell lines. After cell inoculation, the microtiter plates are incubated at 37° C., 5% CO2, 95% air and 100% relative humidity for 24 h prior to addition of experimental drugs.
(§3) After 24 h, two plates of each cell line are fixed in situ with TCA, to represent a measurement of the cell population for each cell line at the time of drug addition (Tz). […]
(§4) Following drug addition, the plates are incubated for an additional 48 h at 37° C., 5% CO2, 95% air, and 100% relative humidity. […] Bound stain is subsequently solubilized with 10 mM trizma base, and the absorbance is read on an automated plate reader at a wavelength of 515 nm. […] Using the seven absorbance measurements [time zero, (Tz), control growth, (C), and test growth in the presence of drug at the five concentration levels (Ti)], the percentage growth is calculated at each of the drug concentrations levels. Percentage growth inhibition is calculated as: [(Ti−Tz)/(C−Tz)]×100 for concentrations for which Ti>/=Tz [(Ti−Tz)/Tz]×100 for concentrations for which Ti<Tz.
(§5) Three dose response parameters are calculated for each experimental agent. […] The drug concentration resulting in total growth inhibition (TGI) is calculated from Ti=Tz. […] Values are calculated for each of these three parameters if the level of activity is reached; however, if the effect is not reached or is exceeded, the value for that parameter is expressed as greater or less than the maximum or minimum concentration tested.

T-47D = test: NCI 60 five-dose screening, T-47D; details: 48 h
Method: as §1, §2, §3, §4, §5

KM12 = test: NCI 60 five-dose screening, KM12
Method: as §1, §2, §3, §4, §5

A549/ATCC = test: NCI 60 five-dose screening, A549/ATCC; type: cell-based, human; details: A549/ATCC (Non-small cell Lung), 48 h
HS578T = test: NCI 60 five-dose screening, HS578T; type: cell-based, human; details: HS578T (Breast Cancer), 48 h
OVCAR-8 = test: NCI 60 five-dose screening, OVCAR-8
Method: (§6) The one-dose and five-dose experiments were conducted according to standard NCI protocols.
as §2
(§7) After 24 h, two plates of each cell line are fixed in situ with TCA, to represent a measurement of the cell population for each cell line at the time of drug addition (Tz). Experimental drugs are solubilized in dimethyl sulfoxide at 400-fold the desired final maximum test concentration and stored frozen prior to use. […]
as §4, §5

TK-10 = test: NCI 60 five-dose screening, TK-10
Method: as §1, §2, §3, §4, §5

MCF7 = test: NCI 60 five-dose screening, MCF7
Method: as §1, §2, §3, §4, §5

SR = test: NCI 60 five-dose screening, SR; details: Homo sapiens, 48 h
Method: as §1
(§8) The human tumor cell lines of the cancer screening panel are grown in RPMI 1640 medium containing 5% fetal bovine serum and 2 mM L-glutamine. For a typical screening experiment, cells are inoculated into 96 well microtiter plates in 100 μL at plating densities ranging from 5,000 to 40,000 cells/well depending on the doubling time of individual cell lines. […]
as §4
(§9) Three dose response parameters are calculated for each experimental agent. […]

HL-60 (TB) = test: NCI 60 five-dose screening, HL-60 (TB); type: cell-based, human; details: HL-60 (TB) (Leukemia), 48 h
IGROV1 = test: NCI 60 five-dose screening, IGROV1
Method: as §1, §2, §3, §4, §5

SW-620 = test: NCI 60 five-dose screening, SW-620
Method: as §1, §2, §3, §4, §5

OVCAR-3 = test: NCI 60 five-dose screening, OVCAR-3; type: cell-based, human
CCRF-CEM = test: NCI 60 five-dose screening, CCRF-CEM; details: Homo sapiens, 48 h
Method: as §1, §8, §4, §9

[1] = system: 60 human cancer cell lines; test: NCI 60 One-Dose Screen; type: cell-based
Text: The one-dose assay reported the growth relative to the no-drug control, and relative to the time zero number of cells. This allowed for the detection of both growth inhibition (values between 0 and 100) and lethality (values less than 0). For example, a value of 100 means no growth inhibition. A value of 40 would mean 60% growth inhibition. A value of 0 means no net growth over the course of the experiment. A value of −40 would mean 40% lethality. A value of −100 means all cells are dead.

786.0 = test: NCI 60 five-dose screening, 786.0
Method: as §6, §2, §7, §4, §5

ACHN = test: NCI 60 five-dose screening, ACHN; details: 48 h
Method: as §6, §2, §7, §4, §5

LOX IMVI = test: NCI 60 five-dose screening, LOX IMVI; details: 48 h
Method: as §1, §2, §3, §4, §5

PC-3 = test: NCI 60 five-dose screening, PC-3
Method: as §1, §2, §3, §4, §5

NCI-H226 = test: NCI 60 five-dose screening, NCI-H226
Method: as §6, §2, §7, §4, §5

NCI-H460 = test: NCI 60 five-dose screening, NCI-H460
Method: as §1, §2, §3, §4, §5

SNB-19 = test: NCI 60 five-dose screening, SNB-19
Method: as §1, §2, §3, §4, §5

SF-295 = test: NCI 60 five-dose screening, SF-295
Method: as §1, §2, §3, §4, §5

RPMI-8226 = test: NCI 60 five-dose screening, RPMI-8226
Method: as §1, §2, §3, §4, §5

K-562 = test: NCI 60 five-dose screening, K-562; details: Homo sapiens, K562, 48 h
Method: as §1, §8, §4, §9

MDA-MB-468 = test: NCI 60 five-dose screening, MDA-MB-468; type: cell-based, human

COc1ccc(SC2c3cc(OC)c(OC)cc3Oc3nc(N)c(C#N)c(N)c32)cc1 (stereo not shown) [Compound 1, 2,4-diamino-7,8-dimethoxy-5-((4-methoxyphenyl)thio)-5H-chromeno[2,3-b]pyridine-3-carbonitrile] was tested, and the GI50 (SK-MEL-28; Homo sapiens, SK-MEL-28, 48 h) was 1470 nM, the CC50 (SK-MEL-28; Homo sapiens, SK-MEL-28, 48 h, read-out: LC50) was 5780 nM and the TGI (SK-MEL-28; SK-MEL-28 (Melanoma), five-dose, 48 h) was 2910 nM. It also gave a GI50 (T-47D; Homo sapiens, T47D) of 1300 nM, a CC50 (T-47D; Homo sapiens, T47D, read-out: LC50) of 8430 nM and a TGI (T-47D; T-47D (Breast Cancer), five-dose) of 3310 nM. The GI50 (KM12; Homo sapiens, KM12, 48 h) was 1530 nM, the CC50 (KM12; Homo sapiens, KM12, 48 h, read-out: LC50) was 6060 nM and the TGI (KM12; KM12 (Colon Cancer), five-dose, 48 h) was 3050 nM. For the same compound, the TGI (A549/ATCC) was 3840 nM, the GI50 (A549/ATCC; Homo sapiens) was 2010 nM and the TGI (HS578T) was 4160 nM. It also gave a GI50 (HS578T; Homo sapiens, Hs-578T) of 1800 nM, a GI50 (OVCAR-8; Homo sapiens, OVCAR-8, 48 h) of 1690 nM and a CC50 (OVCAR-8; Homo sapiens, OVCAR-8, 48 h, read-out: LC50) of 5980 nM. It also gave a TGI (OVCAR-8; OVCAR-8 (Ovarian Cancer), five-dose, 48 h) of 3180 nM, a GI50 (TK-10; Homo sapiens, TK-10, 48 h) of 1630 nM and a CC50 (TK-10; Homo sapiens, TK-10, 48 h, read-out: LC50) of 5550 nM. It also gave a TGI (TK-10; TK-10 (Renal Cancer), five-dose, 48 h) of 3010 nM, a GI50 (MCF7; Homo sapiens, MCF7, 48 h) of 450 nM and a CC50 (MCF7; Homo sapiens, MCF7, 48 h, read-out: LC50) of 8470 nM. The TGI (MCF7; MCF7 (Breast Cancer), five-dose, 48 h) was 2100 nM, the GI50 (SR) was 270 nM and the CC50 (SR; read-out: LC50) was greater than 100000 nM. The TGI (HL-60 (TB)) was 1270 nM, the GI50 (HL-60 (TB); Homo sapiens) was 340 nM and the GI50 (IGROV1; Homo sapiens, IGROV-1, 48 h) was 760 nM. It also gave a CC50 (IGROV1; Homo sapiens, IGROV-1, 48 h, read-out: LC50) of 6420 nM, a TGI (IGROV1; IGROV1 (Ovarian Cancer), five-dose, 48 h) of 2370 nM and a GI50 (SW-620; Homo sapiens, SW-620, 48 h) of 1240 nM. The CC50 (SW-620; Homo sapiens, SW-620, 48 h, read-out: LC50) was 8290 nM, the TGI (SW-620; SW-620 (Colon Cancer), five-dose, 48 h) was 3200 nM and the CC50 (OVCAR-3; Homo sapiens, OVCAR-3, 48 h, read-out: LC50) was 5030 nM. It also gave a GI50 (OVCAR-3; Homo sapiens, OVCAR-3 (Ovarian Cancer), five-dose, 48 h) of 1060 nM, a TGI (OVCAR-3; OVCAR-3 (Ovarian Cancer), five-dose, 48 h) of 2310 nM and a GI50 (CCRF-CEM) of 310 nM. The CC50 (CCRF-CEM; read-out: LC50) was greater than 100000 nM, the “growth inhibition in the One-Dose Screen” value [1] was “significant growth inhibition” and the TGI (786.0; 786.0 (Renal Cancer), five-dose, 48 h) was 1730 nM. For the same compound, the GI50 (786.0; Homo sapiens, 786-0, 48 h) was 490 nM, the CC50 (786.0; Homo sapiens, 786-0, 48 h, read-out: LC50) was 4200 nM and the TGI (ACHN; ACHN (Renal Cancer), five-dose) was 3120 nM. The GI50 (ACHN; Homo sapiens, ACHN) was 1740 nM, the CC50 (ACHN; Homo sapiens, ACHN, read-out: LC50) was 5580 nM and the GI50 (LOX IMVI; Homo sapiens, LOX IMVI) was 580 nM. The CC50 (LOX IMVI; Homo sapiens, LOX IMVI, read-out: LC50) was 4370 nM, the TGI (LOX IMVI; LOX IMVI (Melanoma), five-dose) was 1860 nM and the GI50 (PC-3; Homo sapiens, PC-3, 48 h) was 1160 nM. The CC50 (PC-3; Homo sapiens, PC-3, 48 h, read-out: LC50) was 5370 nM, the TGI (PC-3; PC-3 (Prostate Cancer), five-dose, 48 h) was 2490 nM and the GI50 (NCI-H226; Homo sapiens, NCI-H226, 48 h) was 1370 nM. The CC50 (NCI-H226; Homo sapiens, NCI-H226, 48 h, read-out: LC50) was 5230 nM, the TGI (NCI-H226; NCI-H226 (Non-small cell Lung), five-dose, 48 h) was 2680 nM and the GI50 (NCI-H460; Homo sapiens, NCI-H460, 48 h) was 1660 nM. The CC50 (NCI-H460; Homo sapiens, NCI-H460, 48 h, read-out: LC50) was greater than 100000 nM, the TGI (NCI-H460; NCI-H460 (Non-small cell Lung), five-dose, 48 h) was 4380 nM and the GI50 (SNB-19; Homo sapiens, SNB-19, 48 h) was 1320 nM. It also gave a CC50 (SNB-19; Homo sapiens, SNB-19, 48 h, read-out: LC50) of 5300 nM, a TGI (SNB-19; SNB-19 (CNS Cancer), five-dose, 48 h) of 2640 nM and a GI50 (SF-295; Homo sapiens, SF-295, 48 h) of 1600 nM. It also gave a CC50 (SF-295; Homo sapiens, SF-295, 48 h, read-out: LC50) of 5480 nM, a TGI (SF-295; SF-295 (CNS Cancer), five-dose, 48 h) of 2960 nM and a GI50 (RPMI-8226; Homo sapiens, RPMI-8226, 48 h) of 350 nM. For the same compound, the CC50 (RPMI-8226; Homo sapiens, RPMI-8226, 48 h, read-out: LC50) was greater than 100000 nM, the TGI (RPMI-8226; RPMI-8226 (Leukemia), five-dose, 48 h) was 1810 nM and the GI50 (K-562) was 440 nM. The CC50 (K-562; read-out: LC50) was greater than 100000 nM, the CC50 (MDA-MB-468; Homo sapiens, MDA-MB-468, 48 h, read-out: LC50) was 5620 nM and the GI50 (MDA-MB-468; Homo sapiens, MDA-MB-468 (Breast Cancer), five-dose, 48 h) was 320 nM. The TGI (MDA-MB-468; MDA-MB-468 (Breast Cancer), five-dose, 48 h) was 1530 nM.
